Laboratory results published in EPA's ToxRefDB 2.

How the values were obtained:
[1] = test system: rat; settings: Sub-acute repeat dose toxicity, Oral, Gavage/Intubation, dose end: 28 day, group: systemic
[2] = test system: rat; settings: Sub-acute repeat dose toxicity, Oral, Gavage/Intubation, dose end: 7 day, group: systemic
[3] = test system: dog; settings: Sub-acute repeat dose toxicity, beagle, Oral, Gavage/Intubation, dose end: 28 day, group: systemic
[4] = test system: rat; settings: Multigenerational reproductive toxicity study, sprague dawley, Oral, Feed, dose end: 2 generation
[5] = test system: rat; settings: Subchronic dermal toxicity, sprague dawley, Topical, dose end: 90 day, group: systemic
[6] = test system: dog; settings: Chronic toxicity, beagle, Oral, Gavage/Intubation, dose end: 12 month, group: systemic
[7] = test system: rabbit; settings: Prenatal developmental toxicity study, new zealand white, Oral, Gavage/Intubation, dose end: 18 GD
[8] = test system: mouse; settings: Carcinogenicity; cd1; Oral; Feed; dose end: 78 week; group: systemic; systemic / in life observation / body weight / body weight + systemic / in life observation / body weight / body weight gain
[9] = test system: rat; settings: Combined chronic toxicity/carcinogenicity; sprague dawley; Oral; Feed; dose end: 104 week; group: systemic; systemic / pathology microscopic / lymph node / hemorrhage + systemic / pathology microscopic / lymph node / hemosiderosis + systemic / …
[10] = test system: rat; settings: Subchronic oral toxicity in rodents, sprague dawley, Feed, dose end: 90 day, group: systemic, systemic / in life observation / body weight / body weight + systemic / in life observation / body weight / body weight gain + systemic / in…
[11] = test system: rat; settings: Prenatal developmental toxicity study, sprague dawley, Oral, Gavage/Intubation, dose end: 15 GD
[12] = test system: rabbit; settings: Prenatal developmental toxicity study, new zealand white, Oral, Gavage/Intubation, dose end: 19 GD
[13] = test system: dog; settings: Subchronic oral toxicity in nonrodent, beagle, Feed, dose end: 90 day, group: systemic, systemic / hematology / [other] / [other] + systemic / hematology / anisocytosis / anisocytosis + systemic / hematology / leukocyte (wbc) …
[14] = test system: rat; settings: Prenatal developmental toxicity study, sprague dawley, Oral, Gavage/Intubation, dose end: 15 GD; remark: listed apart in the source
[15] = test system: mouse; settings: Subchronic oral toxicity in rodents, cd1, Feed, dose end: 3 month, group: systemic, systemic / clinical chemistry / albumin / albumin + systemic / clinical chemistry / bilirubin / total bilirubin + systemic / organ weight / …
[16] = test system: rat; settings: Combined chronic toxicity/carcinogenicity; sprague dawley; Oral; Feed; dose end: 2 year; group: systemic; systemic / clinical chemistry / bilirubin / total bilirubin + systemic / hematology / lymphocyte / lymphocyte + systemic / hematology / …
[17] = test system: rat; settings: Subchronic oral toxicity in rodents, sprague dawley, Feed, dose end: 90 day, group: systemic
[18] = test system: mouse; settings: Carcinogenicity, cd1, Oral, Feed, dose end: 18 month, group: systemic
[19] = test system: rat; settings: Multigenerational reproductive toxicity study, sprague dawley, Oral, Feed, dose end: 2 generation; remark: listed apart in the source
[20] = test system: dog; settings: Chronic toxicity; beagle; Oral; Feed; dose end: 1 year; group: systemic; systemic / pathology microscopic / kidney / fatty change + systemic / pathology microscopic / kidney / lipofuscin deposits + systemic / …
[21] = systemic / clinical chemistry / alanine aminotransferase (alt/sgpt) / alanine aminotransferase (alt/sgpt) + systemic / clinical chemistry / …
[22] = systemic / in life observation / clinical signs / lacrimation or red-colored tears + systemic / in life observation / clinical signs / …
[23] = systemic / clinical chemistry / [other] / [other] + systemic / clinical chemistry / albumin / albumin + systemic / clinical chemistry / …
[24] = systemic / in life observation / clinical signs / salivation
[25] = systemic / in life observation / body weight / body weight + systemic / in life observation / clinical signs / dialated pupils + systemic / …
[26] = systemic / in life observation / clinical signs / dialated pupils + systemic / in life observation / clinical signs / distended abdomens + …
[27] = group: offspring, systemic / in life observation / body weight / offspring (pup) weight + systemic / in life observation / body weight / offspring (pup) …
[28] = group: parental, systemic / in life observation / body weight / body weight + systemic / in life observation / body weight / body weight gain + systemic / in…
[29] = systemic / pathology microscopic / skin / acanthosis
[30] = systemic / clinical chemistry / cholesterol / cholesterol + systemic / in life observation / clinical signs / emesis + systemic / in life …
[31] = group: developmental, systemic / in life observation / body weight / fetal weight
[32] = group: maternal, systemic / in life observation / body weight / body weight gain + systemic / in life observation / clinical signs / abnormal respiratory …
[33] = group: maternal, systemic / in life observation / clinical signs / defecation (diarrhea) + systemic / in life observation / clinical signs / oral discharge
[34] = group: developmental, developmental / developmental malformation / bone / [other] + developmental / developmental malformation / bone / incomplete ossification + …
[35] = group: maternal, systemic / in life observation / clinical signs / abnormal respiratory sounds
[36] = group: maternal, systemic / in life observation / clinical signs / abnormal respiratory sounds + systemic / in life observation / body weight / body weight …
[37] = group: developmental, developmental / developmental malformation / general / runts
[38] = group: developmental, developmental / developmental malformation / general / runts + developmental / developmental malformation / bone / detached + developmental…
[39] = group: maternal, systemic / in life observation / body weight / body weight gain + systemic / in life observation / food consumption / food consumption + …
[40] = group: developmental, developmental / developmental malformation / bone / full supernumerary + developmental / developmental malformation / bone / short …
[41] = group: maternal, systemic / in life observation / body weight / body weight gain
[42] = systemic / in life observation / body weight / body weight + systemic / in life observation / body weight / body weight gain
[43] = systemic / in life observation / body weight / body weight + systemic / in life observation / body weight / body weight gain + systemic / …
[44] = group: offspring, systemic / in life observation / body weight / offspring (pup) weight
[45] = group: parental, systemic / in life observation / body weight / body weight + systemic / in life observation / body weight / body weight gain
[46] = group: reproductive, reproductive / reproductive performance / fertility / fertility

SMILES: CSc1ccc(Oc2ccc(S(N)(=O)=O)cc2CN(C)C)cc1C
- LOAEL [1, 21]: > 500 mg/kg/day
- NOAEL [1, 21]: ≥ 500 mg/kg/day
- LEL [1, 22]: 5 mg/kg/day
- NEL [1, 22]: < 5 mg/kg/day
- LOAEL [2, 23]: > 1000 mg/kg/day
- NOAEL [2, 23]: ≥ 1000 mg/kg/day
- LEL [2, 24]: 250 mg/kg/day
- NEL [2, 24]: < 250 mg/kg/day
- LOAEL [3, 25]: > 40 mg/kg/day
- NOAEL [3, 25]: ≥ 40 mg/kg/day
- LEL [3, 26]: 4 mg/kg/day
- NEL [3, 26]: < 4 mg/kg/day

SMILES: CCCCCCCCCC[N+](C)(C)CCCCCCCCCC.[Cl-] [Didecyldimethylammonium chloride]
- LEL [4, 27]: 101 mg/kg/day
- LOAEL [4, 27]: 101 mg/kg/day
- NEL [4, 27]: 48.2 mg/kg/day
- NOAEL [4, 27]: 48.2 mg/kg/day
- LEL [4, 28]: 101 mg/kg/day
- LOAEL [4, 28]: 101 mg/kg/day
- NEL [4, 28]: 48.2 mg/kg/day
- NOAEL [4, 28]: 48.2 mg/kg/day
- LEL [5, 29]: 2 mg/kg/day
- NEL [5, 29]: < 2 mg/kg/day
- LOAEL ([5]; systemic / pathology microscopic / skin / acanthosis + systemic / pathology microscopic / skin / inflammation): 6 mg/kg/day
- NOAEL ([5]; systemic / pathology microscopic / skin / acanthosis + systemic / pathology microscopic / skin / inflammation + systemic / in life …): 2 mg/kg/day
- LOAEL [6, 30]: 20 mg/kg/day
- NEL [6, 30]: 3 mg/kg/day
- NOAEL [6, 30]: 10 mg/kg/day
- LEL ([6]; systemic / in life observation / clinical signs / emesis + systemic / in life observation / clinical signs / mucoid stools + systemic / in …): 10 mg/kg/day
- LEL [7, 31]: 10 mg/kg/day
- LOAEL [7, 31]: 10 mg/kg/day
- NEL [7, 31]: 3 mg/kg/day
- NOAEL [7, 31]: 3 mg/kg/day
- LOAEL [7, 32]: 3 mg/kg/day
- NOAEL [7, 32]: 1 mg/kg/day
- LEL [7, 33]: 1 mg/kg/day
- NEL [7, 33]: < 1 mg/kg/day
- LEL [8]: 156 mg/kg/day
- LOAEL [8]: 156 mg/kg/day
- NEL [8]: 76.3 mg/kg/day
- NOAEL [8]: 76.3 mg/kg/day
- LEL [9]: 64 mg/kg/day
- LOAEL [9]: 64 mg/kg/day
- NEL [9]: 32 mg/kg/day
- NOAEL [9]: 32 mg/kg/day
- LEL [10]: 175 mg/kg/day
- LOAEL [10]: 175 mg/kg/day
- NEL [10]: 60.7 mg/kg/day
- NOAEL [10]: 60.7 mg/kg/day
- LEL [11, 34]: 20 mg/kg/day
- LOAEL [11, 34]: 20 mg/kg/day
- NEL [11, 34]: 10 mg/kg/day
- NOAEL [11, 34]: 10 mg/kg/day
- LEL [11, 35]: 10 mg/kg/day
- LOAEL [11, 35]: 10 mg/kg/day
- NEL [11, 36]: 1 mg/kg/day
- NOAEL [11, 36]: 1 mg/kg/day

SMILES: COc1nc(C)nc(NC(=O)NS(=O)(=O)c2ccccc2CCC(F)(F)F)n1 [Prosulfuron]
- NEL [12, 37]: 100 mg/kg/day
- NOAEL [12, 37]: 100 mg/kg/day
- LEL [12, 38]: 200 mg/kg/day
- LOAEL [12, 38]: 200 mg/kg/day
- LOAEL ([12]; group: maternal, systemic / in life observation / body weight / body weight gain + systemic / in life observation / food consumption / food consumption): 100 mg/kg/day
- LEL [12, 39]: 100 mg/kg/day
- NEL [12, 39]: 20 mg/kg/day
- NOAEL [12, 39]: 20 mg/kg/day
- LEL [13]: 54 mg/kg/day
- LOAEL [13]: 54 mg/kg/day
- NEL [13]: 6.5 mg/kg/day
- NOAEL [13]: 6.5 mg/kg/day
- LEL [14, 40]: 400 mg/kg/day
- LOAEL [14, 40]: 400 mg/kg/day
- NEL [14, 40]: 200 mg/kg/day
- NOAEL [14, 40]: 200 mg/kg/day
- LEL [14, 41]: 400 mg/kg/day
- LOAEL [14, 41]: 400 mg/kg/day
- NEL [14, 41]: 200 mg/kg/day
- NOAEL [14, 41]: 200 mg/kg/day
- LEL [15]: 69.3 mg/kg/day
- LOAEL [15]: 69.3 mg/kg/day
- NEL [15]: 2.01 mg/kg/day
- NOAEL [15]: 2.01 mg/kg/day
- LEL [16]: 0.4 mg/kg/day
- LOAEL [16]: 79.9 mg/kg/day
- NEL [16]: < 0.4 mg/kg/day
- NOAEL [16]: 7.9 mg/kg/day
- LEL [17, 42]: 31 mg/kg/day
- LOAEL [17, 42]: 31 mg/kg/day
- NEL [17, 43]: 3.1 mg/kg/day
- NOAEL [17, 43]: 3.1 mg/kg/day
- LOAEL ([18]; systemic / in life observation / body weight / body weight gain): 508 mg/kg/day
- NOAEL ([18]; systemic / in life observation / body weight / body weight gain + systemic / hematology / mean corpuscular hemoglobin concentration (mchc…): 100 mg/kg/day
- LEL ([18]; systemic / pathology microscopic / liver / hypertrophy): 81.4 mg/kg/day
- NEL ([18]; systemic / pathology microscopic / liver / hypertrophy + systemic / hematology / hematocrit (hct) / hematocrit (hct) + systemic / in life …): 1.71 mg/kg/day
- LEL [19, 44]: 136 mg/kg/day
- LOAEL [19, 44]: 136 mg/kg/day
- NEL [19, 44]: 13.3 mg/kg/day
- NOAEL [19, 44]: 13.3 mg/kg/day
- LEL [19, 45]: 136 mg/kg/day
- LOAEL [19, 45]: 136 mg/kg/day
- NEL [19, 45]: 13.3 mg/kg/day
- NOAEL [19, 45]: 13.3 mg/kg/day
- LEL [19, 46]: 278 mg/kg/day
- LOAEL [19, 46]: > 278 mg/kg/day
- NEL [19, 46]: 136 mg/kg/day
- NOAEL [19, 46]: ≥ 278 mg/kg/day
- LEL [20]: 18.6 mg/kg/day
- LOAEL [20]: 18.6 mg/kg/day
- NEL [20]: 1.95 mg/kg/day
- NOAEL [20]: 1.95 mg/kg/day
